Values quoted from earlier work in patent US20250312497A1, “METHOD OF TREATING PROSTATE CANCER” (Novartis AG, priority 2022, published 2025).

Assays:
[1] = test system: docetaxel progressing metastatic castration-resistant prostate cancer; details: randomized, 200 patients; P<0.0001; cited from earlier work
mCRPC = details: control arm; prior docetaxel and abiraterone acetate and/or enzalutamide; cited from earlier work

Structure (SMILES)	proportion of patients with PSA decline >=50% [1]	median overall survival (mCRPC)
CO[C@H]1C(=O)[C@]2(C)[C@@H](OC)C[C@H]3OC[C@@]3(OC(C)=O)[C@H]2[C@H](OC(=O)c2ccccc2)[C@]2(O)C[C@H](OC(=O)[C@H](O)[C@@H](NC(=O)OC(C)(C)C)c3ccccc3)C(C)=C1C2(C)C [cabazitaxel]	37%	–
C[C@]12C=CC(=O)C=C1CC[C@@H]1[C@@H]2C(=O)C[C@@]2(C)[C@H]1CC[C@]2(O)C(=O)CO [prednisone]	–	9.8 months
